How the values were obtained:
HCV = HCV viral entry into human host cells; assay type: cell-based
[1] = Dissolution of Catvira film coated tablets (Ribavirin and Sofosbuvir released); assay type: physicochemical
Experimental: • 1.1. Description: Yellow to deep yellow, oblong, biconvex, film coated tablets • 1.2. Determination of Average of Weight: (Limit: 1000 mg±5%) Proceed as BP2014 • 1.3. Determination of Disintegration Time: (Limit: NMT 30 min) Proceed as USP 35 • 1.4. Determination of Dissolution test for Sofosbuvir and Ribavirin:— Conditions of Dissolution:— • USP Apparatus: II (Paddle) • Speed: […] & Materials:— • Methanol HPLC Grade. • Acetonitrile HPLC Grade • Tetrahydrofuran HPLC Grade. • Ammonium acetate • Sofosbuvir and Ribavirin working standard. Apparatus & Equipement:— • Calibrated Analytical balance accurate to±0.1 mg • HPLC:—Waters UV detector or equivalent • Column: Symmetry (C18 (5 μm) 4.6×250 mm) or equivalent. • Sonicator with temperature control • Volumetric flasks • Pipettes class A Chromatographic Conditions:— • Column: Symmetry (C18 (5 μm) 4.6×250 mm) or equivalent. • Flow rate: 0.8 ml/min. • Detector: UV at λ242 nm • Injection volume: 10 μl • Mobile phase: (Acetonitrile: Tetrahydrofuran: Ammonium Acetate) (10:40:50) • Acetate Buffer: into 1000 ml volumetric flask, weight 1 gm of Ammonium Acetate buffer, add 900 ml purified water shake to dissolve then complete to the volume by the same solvent, adjust pH 3.5 by Glacial Acetic acid. […]

In the case of `O=C(O[C@@H]1Cc2c(O)cc(O)cc2O[C@@H]1c1cc(O)c(O)c(O)c1)c1cc(O)c(O)c(O)c1` [EGCG, (−)-Epigallocatechin Gallate], the “HCV viral entry into human host cells” value (HCV) is reported as “effectively suppressed”.
In the case of `NC(=O)c1ncn([C@@H]2O[C@H](CO)[C@@H](O)[C@H]2O)n1` [Ribavirin, 1-[(2R,3R,4S,5R)-3,4-dihydroxy-5-(hydroxymethyl)oxolan-2-yl]-1H-1,2,4-triazole-3-carboxamide], the Dissolution ([1]; pH 1.2, 5 min) is reported as 25.34%, the Dissolution ([1]; pH 1.2, 10 min) is reported as 43.13% and the Dissolution ([1]; pH 1.2, 15 min) is reported as 62.29%. For the same compound, the Dissolution ([1]; pH 1.2, 20 min) was 80.69%, the Dissolution ([1]; pH 1.2, 30 min) was 100.74% and the Dissolution ([1]; pH 1.2, 45 min) was 101.36%. It also gave a Dissolution ([1]; pH 1.2, 60 min) of 101.87%, a Dissolution ([1]; pH 1.2, 90 min) of 101.97% and a Dissolution ([1]; pH 4.5, 5 min) of 29.46%. It also gave a Dissolution ([1]; pH 4.5, 10 min) of 47.54%, a Dissolution ([1]; pH 4.5, 15 min) of 68.75% and a Dissolution ([1]; pH 4.5, 20 min) of 85.33%. It also gave a Dissolution ([1]; pH 4.5, 30 min) of 101.35%, a Dissolution ([1]; pH 4.5, 45 min) of 101.42% and a Dissolution ([1]; pH 4.5, 60 min) of 102.72%. It also gave a Dissolution ([1]; pH 4.5, 90 min) of 102.97%, a Dissolution ([1]; pH 6.8, 5 min) of 59.24% and a Dissolution ([1]; pH 6.8, 10 min) of 76.73%. For the same compound, the Dissolution ([1]; pH 6.8, 15 min) was 88.40%, the Dissolution ([1]; pH 6.8, 20 min) was 92.31% and the Dissolution ([1]; pH 6.8, 30 min) was 93.23%. The Dissolution ([1]; pH 6.8, 45 min) was 93.09%, the Dissolution ([1]; pH 6.8, 60 min) was 93.31% and the Dissolution ([1]; pH 6.8, 90 min) was 94.02%.
For `CC(C)OC(=O)[C@H](C)N[P@](=O)(OC[C@H]1O[C@@H](n2ccc(=O)[nH]c2=O)[C@](C)(F)[C@@H]1O)Oc1ccccc1` [Sofosbuvir, Isopropyl (2S)-2-[(2R, 3R, 4R, 5R)-5-(2,4-dioxopyrimidin-1-yl)-4-fluoro-3-hydroxy-4-methyl-tetrahydrofuran-2-yl] methoxy-phenoxy-phosphoryl] amino] propanoate], the Dissolution ([1]; pH 1.2, 5 min) was 13.82%, the Dissolution ([1]; pH 1.2, 10 min) was 28.77% and the Dissolution ([1]; pH 1.2, 15 min) was 44.57%. The Dissolution ([1]; pH 1.2, 20 min) was 63.43%, the Dissolution ([1]; pH 1.2, 30 min) was 85.39% and the Dissolution ([1]; pH 1.2, 45 min) was 86.07%. For the same compound, the Dissolution ([1]; pH 1.2, 60 min) was 88.13%, the Dissolution ([1]; pH 1.2, 90 min) was 90.79% and the Dissolution ([1]; pH 4.5, 5 min) was 15.00%. It also gave a Dissolution ([1]; pH 4.5, 10 min) of 33.94%, a Dissolution ([1]; pH 4.5, 15 min) of 52.46% and a Dissolution ([1]; pH 4.5, 20 min) of 74.22%. It also gave a Dissolution ([1]; pH 4.5, 30 min) of 98.95%, a Dissolution ([1]; pH 4.5, 45 min) of 100.44% and a Dissolution ([1]; pH 4.5, 60 min) of 101.08%. It also gave a Dissolution ([1]; pH 4.5, 90 min) of 102.04%, a Dissolution ([1]; pH 6.8, 5 min) of 36.18% and a Dissolution ([1]; pH 6.8, 10 min) of 65.56%. It also gave a Dissolution ([1]; pH 6.8, 15 min) of 83.04%, a Dissolution ([1]; pH 6.8, 20 min) of 97.55% and a Dissolution ([1]; pH 6.8, 30 min) of 99.80%. It also gave a Dissolution ([1]; pH 6.8, 45 min) of 100.04%, a Dissolution ([1]; pH 6.8, 60 min) of 100.47% and a Dissolution ([1]; pH 6.8, 90 min) of 100.39%.
